“And” between values parts separate entries of the source, which are not always exact repeats. Identical values can stand only once. Toxic doses and inconclusive results are not listed. The calls were made as follows: active = survival T/C of 150% or more; inactive = T/C below 125% in these data.
Test system: P388 leukemia ip, CD2F1 mice, survival T/C
Assay: NCI In Vivo Anticancer Drug Screen. Data for tumor model P388 Leukemia (intraperitoneal) in CD2F1 (CDF1) mice
Settings: endpoint: median survival time, higher = longer survival
Method in brief: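 Mice carrying the transplanted tumor received test compound or vehicle. Survival was recorded in each group, and the value is the treated-group measurement divided by that of the vehicle-treated control group.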

[1] = dose: 50.0 mg/kg/injection, schedule: Q01DX009 (ip), vehicle: Klucel (hydroxypropylcellulose) (HPC)
[2] = dose: 50.0 mg/kg/injection, schedule: Q01DX009 (ip), vehicle: saline with Tween-80
[3] = dose: 60.0 mg/kg/injection, schedule: Q01DX005 (ip), vehicle: Klucel (hydroxypropylcellulose) (HPC)
[4] = dose: 120.0 mg/kg/injection, schedule: Q01DX005 (ip), vehicle: Klucel (hydroxypropylcellulose) (HPC)
[5] = dose: 240.0 mg/kg/injection, schedule: Q01DX005 (ip), vehicle: Klucel (hydroxypropylcellulose) (HPC)
[6] = dose: 50.0 mg/kg/injection, schedule: Q01DX005 (ip), vehicle: Klucel (hydroxypropylcellulose) (HPC)
[7] = dose: 100.0 mg/kg/injection, schedule: Q01DX005 (ip), vehicle: Klucel (hydroxypropylcellulose) (HPC)
[8] = dose: 200.0 mg/kg/injection, schedule: Q01DX005 (ip), vehicle: Klucel (hydroxypropylcellulose) (HPC)
[9] = dose: 60.0 mg/kg/injection, schedule: Q01DX005 (ip), vehicle: saline with Tween-80
[10] = dose: 120.0 mg/kg/injection, schedule: Q01DX005 (ip), vehicle: saline with Tween-80
[11] = dose: 240.0 mg/kg/injection, schedule: Q01DX005 (ip), vehicle: saline with Tween-80
[12] = dose: 50.0 mg/kg/injection, schedule: Q01DX005 (ip), vehicle: saline with Tween-80
[13] = dose: 100.0 mg/kg/injection, schedule: Q01DX005 (ip), vehicle: saline with Tween-80
[14] = dose: 200.0 mg/kg/injection, schedule: Q01DX005 (ip), vehicle: saline with Tween-80
[15] = dose: 100.0 mg/kg/injection, schedule: Q04DX003 (ip), vehicle: Klucel (hydroxypropylcellulose) (HPC)
[16] = dose: 200.0 mg/kg/injection, schedule: Q04DX003 (ip), vehicle: Klucel (hydroxypropylcellulose) (HPC)
[17] = dose: 25.0 mg/kg/injection, schedule: Q01DX005 (ip), vehicle: Klucel (hydroxypropylcellulose) (HPC)

Measured: T/C

CCCCCCCCCCCCCC[N+](C)([O-])CCCCCC[N+](C)([O-])CCCCCCCCCCCCCC (configuration not stated)
inactive: dose: 12.5 mg/kg/injection, schedule: Q01DX009 (ip), vehicle: Klucel (hydroxypropylcellulose) (HPC) 94 % of control | dose: 25.0 mg/kg/injection, schedule: Q01DX009 (ip), vehicle: Klucel (hydroxypropylcellulose) (HPC) 100 % of control | [1] 92 % of control and 93 % of control

O=c1oc2ccccc2cc1-c1ccc(Br)c2ccccc12
inactive: [1] 93 % of control | dose: 100.0 mg/kg/injection, schedule: Q01DX009 (ip), vehicle: Klucel (hydroxypropylcellulose) (HPC) 100 % of control | dose: 200.0 mg/kg/injection, schedule: Q01DX009 (ip), vehicle: Klucel (hydroxypropylcellulose) (HPC) 95 % of control

O=NN1CCN(N=O)CC1
inactive: dose: 25.0 mg/kg/injection, schedule: Q01DX009 (ip), vehicle: saline with Tween-80 113 % of control | [2] 109 % of control | dose: 50.0 mg/kg/injection, schedule: Q04DX003 (ip), vehicle: saline with Tween-80 109 % of control | dose: 100.0 mg/kg/injection, schedule: Q04DX003 (ip), vehicle: saline with Tween-80 104 % of control

Cc1oc2ccccc2c(=O)c1CN1CCOCC1
inactive: dose: 60.0 mg/kg/injection, schedule: Q01DX005 (ip), vehicle: saline 101 % of control | dose: 120.0 mg/kg/injection, schedule: Q01DX005 (ip), vehicle: saline 103 % of control

CC(=O)OC1CC(C(=O)c2ccccc2)N2N=CN(c3ccccc3)C12 (configuration not stated)
inactive: [3] 103 % of control | [4] 102 % of control | [5] 104 % of control

CCOC(=O)c1ccccc1NC(=O)C1C2C=CC(C2)C1C(=O)O (configuration not stated)
inactive: dose: 50.0 mg/kg/injection, schedule: Q01DX009 (ip), vehicle: saline + alcohol 103 % of control | dose: 100.0 mg/kg/injection, schedule: Q01DX009 (ip), vehicle: saline + alcohol 104 % of control | dose: 200.0 mg/kg/injection, schedule: Q01DX009 (ip), vehicle: saline + alcohol 97 % of control

COc1ccc(NC(=O)C#N)cc1
inactive: dose: 7.5 mg/kg/injection, schedule: Q01DX005 (ip), vehicle: saline with Tween-80 105 % of control | dose: 15.0 mg/kg/injection, schedule: Q01DX005 (ip), vehicle: saline with Tween-80 113 % of control

NC(CSP(=O)(O)O)=NCC12CC3CC(CC(C3)C1)C2
inactive: dose: 3.12 mg/kg/injection, schedule: Q01DX009 (ip), vehicle: saline with Tween-80 100 % of control | dose: 6.25 mg/kg/injection, schedule: Q01DX009 (ip), vehicle: saline with Tween-80 104 % of control | dose: 12.5 mg/kg/injection, schedule: Q01DX009 (ip), vehicle: saline with Tween-80 110 % of control

NCCn1c(-c2ccccc2)nc2ccccc2c1=O
inactive: [6] 100 % of control | [7] 97 % of control | [8] 109 % of control

COc1ccc(SCC(=O)c2ccc([N+](=O)[O-])o2)cc1
inactive: dose: 50.0 mg/kg/injection, schedule: Q01DX009 (ip), vehicle: suspension in saline 114 % of control | dose: 100.0 mg/kg/injection, schedule: Q01DX009 (ip), vehicle: suspension in saline 104 % of control

NC(CCCNc1ccc(O)cc1)C(=O)O (configuration not stated)
inactive: dose: 50.0 mg/kg/injection, schedule: Q01DX005 (ip), vehicle: saline 100 % of control | dose: 100.0 mg/kg/injection, schedule: Q01DX005 (ip), vehicle: saline 99 % of control and 104 % of control | dose: 200.0 mg/kg/injection, schedule: Q01DX005 (ip), vehicle: saline 98 % of control

C[N+](C)(C)CC(=O)NNC(=O)CCn1[nH]c(=O)c(Cl)c(Cl)c1=O
inactive: [9] 104 % of control | [10] 99 % of control | [11] 97 % of control

COc1ccc(-c2cc3ccccc3c(=O)n2Cc2ccccc2)cc1
inactive: [9] 100 % of control | [10] 103 % of control | [11] 94 % of control

CCCCCCC(O)CCCCCC
inactive: dose: 100.0 mg/kg/injection, schedule: Q04DX003 (ip), vehicle: other 104 % of control | dose: 200.0 mg/kg/injection, schedule: Q04DX003 (ip), vehicle: other 109 % of control | dose: 400.0 mg/kg/injection, schedule: Q04DX003 (ip), vehicle: other 100 % of control

COc1ccc(/C=C/C(=O)c2ccccc2)cc1OC
inactive: [2] 103 % of control | dose: 100.0 mg/kg/injection, schedule: Q01DX009 (ip), vehicle: saline with Tween-80 114 % of control | dose: 200.0 mg/kg/injection, schedule: Q01DX009 (ip), vehicle: saline with Tween-80 100 % of control

CC1=C(c2ccco2)C2(c3ccco3)C(C(=O)c3ccccc3)C2(C)C1=O (configuration not stated)
inactive: [12] 90 % of control | [13] 90 % of control | [14] 95 % of control

C1CCCCCC2OC2CCCC1 (configuration not stated)
inactive: dose: 50.0 mg/kg/injection, schedule: Q04DX003 (ip), vehicle: Klucel (hydroxypropylcellulose) (HPC) 107 % of control | [15] 112 % of control | [16] 107 % of control

Cn1nnc(-c2cccc(F)c2)n1
inactive: [17] 105 % of control | [6] 91 % of control and 96 % of control | [7] 93 % of control | [8] 91 % of control

COC(=O)CC1(C(=O)OC)C2CCCN2C2(C#N)c3ccccc3CCC12Br (configuration not stated)
inactive: dose: 100.0 mg/kg/injection, schedule: Q01DX001 (ip), vehicle: saline 111 % of control | dose: 200.0 mg/kg/injection, schedule: Q01DX001 (ip), vehicle: saline 117 % of control | dose: 400.0 mg/kg/injection, schedule: Q01DX001 (ip), vehicle: saline 104 % of control

CC1CCCC(C)N1C(=O)C(Cl)(Cl)Cl (configuration not stated)
inactive: [12] 100 % of control | [13] 100 % of control | [14] 100 % of control

CC1CCCC(C)N1CC#CCNC(=O)C1CCC(=O)N1 (configuration not stated)
inactive: [17] 100 % of control | [6] 102 % of control | [7] 121 % of control

C=CCNc1nc(-c2ccc(OC)c(OC)c2)cs1
inactive: [15] 100 % of control | [16] 103 % of control | dose: 400.0 mg/kg/injection, schedule: Q04DX003 (ip), vehicle: Klucel (hydroxypropylcellulose) (HPC) 100 % of control

COc1cc(C(c2cc3c(cc2O)OCO3)N2CCCC2)cc(OC)c1OC (configuration not stated)
inactive: [3] 118 % of control | [4] 106 % of control | [5] 101 % of control

C/C1=C/C2OC(=O)C3(C)C2C(CC2(C)OC1=CC2=O)OC3(O)C(C)C (configuration not stated)
inactive: dose: 10.0 mg/kg/injection, schedule: Q01DX005 (ip), vehicle: saline + alcohol 100 % of control | dose: 20.0 mg/kg/injection, schedule: Q01DX005 (ip), vehicle: saline + alcohol 102 % of control | dose: 40.0 mg/kg/injection, schedule: Q01DX005 (ip), vehicle: saline + alcohol 99 % of control | dose: 80.0 mg/kg/injection, schedule: Q01DX005 (ip), vehicle: saline + alcohol 109 % of control

— PubChem BioAssay AID330 (DTP/NCI, 2004)
